Data: publication PMC9329436, “Optimization of the 4-anilinoquin(az)oline scaffold as epidermal growth factor receptor (EGFR) inhibitors for chordoma utilizing a toxicology profiling assay platform” (Scientific Reports, 2022)
Several values for one entry are separate records, joined by “and”; a condition that tells them apart may be missing. Equal entries are not always repeated.

What follows are molecules tested on U-CH1 chordoma cell line (assay: Cell viability assay (alamarBlue, 72 h), U-CH1). Settings: Homo sapiens, UCH1, n = 4, 72 h.
Assay type: cell-based, human
Procedure: (§1) Chordoma cell lines were cultured as described previously[10],[12],[33],[34]. Briefly, U-CH1 and U-CH2 cell lines were cultured in 4:1 IMDM:RPMI medium supplemented with 10% fetal bovine serum (FBS) and 1% penicillin/streptomycin in gel-coated flasks. […] CH22, UM-Chor1, U-CH12, and U-CH7 cell lines were cultured in RPMI medium supplemented with 10% FBS and 1% penicillin/streptomycin. The cell lines all undergo regular mycoplasma screening.
(§2) Cells were seeded in 384 well plates and were treated with test compound in quadruplicate 24 h after plating. Cell viability was assessed at 72 h using alamarBlue (ThermoFisher, USA). […] IC50 values were determined by four-parameter nonlinear regression analyses using GraphPad Prism™ version 8 software (San Diego, CA).

Row | Structure (SMILES) | IC50 [µM]
1 | C#Cc1cccc(Nc2c(C#N)cnc3ccc(I)cc23)c1 [Compound 28, 4-((3-ethynylphenyl)amino)-6-iodoquinoline-3-carbonitrile] | 8.7

Same assay, conditions: n = 4, 72 h

Row | Structure (SMILES) | IC50 [µM]
2 | C#Cc1ccc(F)c(Nc2ncnc3cc(OC)c(OC)cc23)c1 [Compound 42] | 6.7
3 | C#Cc1cccc(Nc2c(C#N)cnc3ccc(Br)cc23)c1 [Compound 27] | 22
4 | C#Cc1cccc(Nc2ncnc3ccc(C#N)cc23)c1 [Compound 18] | 74
5 | C#Cc1cccc(Nc2ncnc3ccc(OC)cc23)c1 [Compound 2] | 1.4
6 | C#Cc1cccc(Nc2c(C#N)cnc3ccc(OC)cc23)c1 [Compound 23] | 20
7 | C#Cc1cccc(Nc2ncnc3ccc(C(F)(F)F)cc23)c1 [Compound 10] | 21
8 | C#Cc1cccc(Nc2ncnc3cc(F)ccc23)c1 [Compound 12] | 41

What follows are molecules tested on U-CH7 patient-derived chordoma cell line (assay: Cell viability assay (alamarBlue, 72 h), U-CH7). Settings: Homo sapiens, n = 4, 72 h.
Assay type: cell-based, human
Procedure: as §1, §2

Row | Structure (SMILES) | IC50 [µM]
9 | C#Cc1cccc(Nc2c(C#N)cnc3ccc(I)cc23)c1 [Compound 28, 4-((3-ethynylphenyl)amino)-6-iodoquinoline-3-carbonitrile] | > 100
10 | C#Cc1cccc(Nc2ncnc3cc(OCCOC)c(OCCOC)cc23)c1 [Erlotinib, reference compound] | 95

Same assay, conditions: n = 4, 72 h

Row | Structure (SMILES) | IC50 [µM]
11 | C#Cc1ccc(F)c(Nc2ncnc3cc(OC)c(OC)cc23)c1 [Compound 42] | > 100

The molecules below were run on WS1 human fibroblast cell line (assay: Cell viability assay, WS1 toxicity control). Settings: Homo sapiens, Fibroblast, n = 4, nonspecific toxicity control.
Assay type: cell-based
Procedure: as §2

Row | Structure (SMILES) | IC50 [µM]
12 | C#Cc1cccc(Nc2ncnc3cc(OCCOC)c(OCCOC)cc23)c1 [Erlotinib, reference compound] | 19

Same assay, conditions: n = 4, nonspecific toxicity control

Row | Structure (SMILES) | IC50 [µM]
13 | C#Cc1ccc(F)c(Nc2ncnc3cc(OC)c(OC)cc23)c1 [Compound 42] | 20

Each molecule was assayed on CH22 patient-derived chordoma cell line (assay: Cell viability assay (alamarBlue, 72 h), CH22). Settings: Homo sapiens, n = 4, 72 h.
Assay type: cell-based, human
Procedure: as §1, §2

Row | Structure (SMILES) | IC50 [µM]
14 | C#Cc1cccc(Nc2c(C#N)cnc3ccc(I)cc23)c1 [Compound 28, 4-((3-ethynylphenyl)amino)-6-iodoquinoline-3-carbonitrile] | 8.4
15 | C#Cc1cccc(Nc2ncnc3cc(OCCOC)c(OCCOC)cc23)c1 [Erlotinib, reference compound] | > 100

Same assay, conditions: n = 4, 72 h

Row | Structure (SMILES) | IC50 [µM]
16 | C#Cc1ccc(F)c(Nc2ncnc3cc(OC)c(OC)cc23)c1 [Compound 42] | 4.2

What follows are molecules tested on HL60 cells (assay: AsedaSciences SYSTEMETRIC Cell Health Screen (flow cytometry toxicity profiling)). Settings: HL60, 4 h, 5 nM–100 µM, probability 0–1, n = 2.
Method in brief: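 HL60 cells (100,000 per well) exposed 4 h at 37 °C, 5% CO2 to 10-step 3× dilutions (5 nM–100 µM), in duplicate. Cells then stained with mitochondrial and cell-stress reporter dyes and read by ungated flow cytometry over twelve parameters. Cell Health Index and eight endpoint scores come from an ML classifier trained on 300 high/low-risk compounds.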

Row | Structure (SMILES) | CC: Cell Cycle score | CM: Cell morphology score | CMI: Cell membrane integrity score | GSH: Glutathione score | MMP: Mitochondrial membrane depolarization score | NMI1: Nuclear membrane integrity 1 score | NMI2: Nuclear membrane integrity 2 score | ROS: Reactive superoxide species score
17 | C#Cc1ccc(F)c(Nc2ncnc3cc(OC)c(OC)cc23)c1 [Compound 42] | 0.67 | 0.31 | 0.78 | 0.25 | 0.89 | 0.13 | 0.85 | 0.63
18 | C#Cc1cccc(Nc2c(C#N)cnc3ccc(I)cc23)c1 [Compound 28, 4-((3-ethynylphenyl)amino)-6-iodoquinoline-3-carbonitrile] | 0.91 | 0.88 | 1.00 | 0.93 | 0.99 | 0.74 | 0.81 | 0.89
19 | C#Cc1cccc(Nc2ncnc3ccc(C#N)cc23)c1 [Compound 18] | 0.27 | 0.0026 | 0.0079 | 0.023 | 0.11 | 0.33 | 0.094 | 0.042
20 | C#Cc1cccc(Nc2ncnc3ccc(OC)cc23)c1 [Compound 2] | 0.38 | 0.24 | 0.62 | 0.038 | 0.019 | 0.42 | 0.068 | 0.17
21 | C#Cc1cccc(Nc2ncnc3cc(OCCOC)c(OCCOC)cc23)c1 [Erlotinib, reference compound] | – | 0.77 | 0.50 and 0.74 | 0.63 and 0.81 | – | – | – | –
22 | C#Cc1cccc(Nc2ncnc3ccc(C(F)(F)F)cc23)c1 [Compound 10] | 0.59 | 0.058 | 0.045 | 0.004 | 0.74 | 0.21 | 0.19 | 0.77
23 | C#Cc1cccc(Nc2ncnc3cc(F)ccc23)c1 [Compound 12] | 0.59 | 0.058 | 0.045 | 0.004 | 0.74 | 0.21 | 0.19 | 0.77

Same assay, conditions: HL60, 4 h, 5 nM–100 µM, probability (0–1) of high-risk class, n = 2

Row | Structure (SMILES) | CHI: Cell Health Index
24 | C#Cc1ccc(F)c(Nc2ncnc3cc(OC)c(OC)cc23)c1 [Compound 42] | 0.48
25 | C#Cc1cccc(Nc2c(C#N)cnc3ccc(I)cc23)c1 [Compound 28, 4-((3-ethynylphenyl)amino)-6-iodoquinoline-3-carbonitrile] | 0.70
26 | C#Cc1cccc(Nc2ncnc3ccc(C#N)cc23)c1 [Compound 18] | 0.18
27 | C#Cc1cccc(Nc2ncnc3ccc(OC)cc23)c1 [Compound 2] | 0.31
28 | C#Cc1cccc(Nc2ncnc3ccc(C(F)(F)F)cc23)c1 [Compound 10] | 0.40
29 | C#Cc1cccc(Nc2ncnc3cc(F)ccc23)c1 [Compound 12] | 0.40

Same assay, conditions: SYSTEMETRIC Cell Health Screen; assay n=2

Row | Structure (SMILES) | Cell Health Toxcity Profile CC (DyeCycle Violet) | Cell Health Toxcity Profile CM (Cell morphology) | Cell Health Toxcity Profile CMI (Cell membrane integrity) | Cell Health Toxcity Profile GSH (Glutathione) | Cell Health Toxcity Profile MMP (Mitochondrial membrane depolarization) | Cell Health Toxcity Profile NMI1 (Nuclear membrane integrity 1) | Cell Health Toxcity Profile NMI2 (Nuclear membrane integrity 2) | Cell Health Toxcity Profile ROS (Reactive superoxide species)
30 | C#Cc1cccc(Nc2c(C#N)cnc3ccc(I)cc23)c1 [Compound 28, 4-((3-ethynylphenyl)amino)-6-iodoquinoline-3-carbonitrile] | 0.91 | 0.88 | 1.00 | 0.93 | 0.99 | 0.74 | 0.81 | 0.89
31 | C#Cc1cccc(Nc2c(C#N)cnc3ccc(Br)cc23)c1 [Compound 27] | 0.98 | 1.00 | 1.00 | 0.98 | 0.96 | 0.32 | 0.98 | 1.00
32 | C#Cc1cccc(Nc2c(C#N)cnc3ccc(OC)cc23)c1 [Compound 23] | 0.74 | 0.020 | 0.0039 | 0.0085 | 0.28 | 0.30 | 0.11 | 0.056

Same assay, conditions: SYSTEMETRIC Cell Health Screen; classifier output; assay n=2

Row | Structure (SMILES) | Cell Health Toxcity Profile CHI
33 | C#Cc1cccc(Nc2c(C#N)cnc3ccc(I)cc23)c1 [Compound 28, 4-((3-ethynylphenyl)amino)-6-iodoquinoline-3-carbonitrile] | 0.70
34 | C#Cc1cccc(Nc2c(C#N)cnc3ccc(Br)cc23)c1 [Compound 27] | 0.75
35 | C#Cc1cccc(Nc2c(C#N)cnc3ccc(OC)cc23)c1 [Compound 23] | 0.26

What follows are molecules tested on U-CH12 patient-derived chordoma cell line (assay: Cell viability assay (alamarBlue, 72 h), U-CH12). Settings: Homo sapiens, n = 4, 72 h.
Assay type: cell-based, human
Procedure: as §1, §2

Row | Structure (SMILES) | IC50 [µM]
36 | C#Cc1cccc(Nc2c(C#N)cnc3ccc(I)cc23)c1 [Compound 28, 4-((3-ethynylphenyl)amino)-6-iodoquinoline-3-carbonitrile] | 7.7
37 | C#Cc1cccc(Nc2ncnc3cc(OCCOC)c(OCCOC)cc23)c1 [Erlotinib, reference compound] | 68

Same assay, conditions: n = 4, 72 h

Row | Structure (SMILES) | IC50 [µM]
38 | C#Cc1ccc(F)c(Nc2ncnc3cc(OC)c(OC)cc23)c1 [Compound 42] | > 100

What follows are molecules tested on UM-Chor1 patient-derived chordoma cell line (assay: Cell viability assay (alamarBlue, 72 h), UM-Chor1). Settings: Homo sapiens, n = 4, 72 h.
Assay type: cell-based, human
Procedure: as §1, §2

Row | Structure (SMILES) | IC50 [µM]
39 | C#Cc1cccc(Nc2c(C#N)cnc3ccc(I)cc23)c1 [Compound 28, 4-((3-ethynylphenyl)amino)-6-iodoquinoline-3-carbonitrile] | 6.9
40 | C#Cc1cccc(Nc2ncnc3cc(OCCOC)c(OCCOC)cc23)c1 [Erlotinib, reference compound] | 19

Same assay, conditions: n = 4, 72 h

Row | Structure (SMILES) | IC50 [µM]
41 | C#Cc1ccc(F)c(Nc2ncnc3cc(OC)c(OC)cc23)c1 [Compound 42] | > 100

What follows are molecules tested against EGFR (Homo sapiens, UniProt P00533) (assay: ProQinase in-cell EGFR assay (EGFR phosphorylation in A431 cells)). Settings: ProQinase in-cell EGFR assay, A431 cells, n = 1.
Sequence of EGFR (P00533 25-1210): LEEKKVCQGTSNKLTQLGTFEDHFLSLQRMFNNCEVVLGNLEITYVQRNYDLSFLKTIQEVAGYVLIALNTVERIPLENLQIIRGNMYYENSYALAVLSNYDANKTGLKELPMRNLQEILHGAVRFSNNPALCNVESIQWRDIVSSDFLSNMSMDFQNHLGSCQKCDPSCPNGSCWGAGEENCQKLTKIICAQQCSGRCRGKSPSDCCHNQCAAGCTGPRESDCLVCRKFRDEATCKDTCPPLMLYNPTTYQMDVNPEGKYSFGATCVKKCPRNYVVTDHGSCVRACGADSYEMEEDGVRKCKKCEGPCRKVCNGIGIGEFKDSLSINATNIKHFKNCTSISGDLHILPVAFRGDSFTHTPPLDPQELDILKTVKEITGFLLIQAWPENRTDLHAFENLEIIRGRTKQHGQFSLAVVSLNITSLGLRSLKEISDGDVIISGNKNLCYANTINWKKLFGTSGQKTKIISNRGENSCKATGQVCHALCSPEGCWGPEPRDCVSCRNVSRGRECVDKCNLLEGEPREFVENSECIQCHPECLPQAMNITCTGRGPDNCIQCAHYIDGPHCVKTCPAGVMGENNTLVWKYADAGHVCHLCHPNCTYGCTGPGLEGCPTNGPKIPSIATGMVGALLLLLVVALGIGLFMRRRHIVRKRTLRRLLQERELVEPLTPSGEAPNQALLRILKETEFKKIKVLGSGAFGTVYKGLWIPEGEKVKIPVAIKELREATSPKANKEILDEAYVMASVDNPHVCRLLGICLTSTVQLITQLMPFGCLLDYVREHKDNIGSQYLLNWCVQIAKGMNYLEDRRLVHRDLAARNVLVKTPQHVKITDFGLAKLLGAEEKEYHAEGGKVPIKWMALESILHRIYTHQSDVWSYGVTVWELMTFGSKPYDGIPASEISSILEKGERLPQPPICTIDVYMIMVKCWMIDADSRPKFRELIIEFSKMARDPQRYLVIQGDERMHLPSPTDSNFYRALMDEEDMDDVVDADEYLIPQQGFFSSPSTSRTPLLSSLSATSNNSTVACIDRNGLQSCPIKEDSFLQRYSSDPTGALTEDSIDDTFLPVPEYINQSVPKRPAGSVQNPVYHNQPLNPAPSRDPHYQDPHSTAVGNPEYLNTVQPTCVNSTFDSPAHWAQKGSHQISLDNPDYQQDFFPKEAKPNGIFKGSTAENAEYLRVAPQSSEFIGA
Assay type: cell-based
Set-up: This cell line endogenously expresses a high level of EGFR; endogenous in cells; host or cells: A431
Source text: In addition, we ran an EGFR in-cell target engagement assay, measuring in-cell EGFR phosphorylation, using the human epidermoid carcinoma cell line A431. This cell line endogenously expresses a high level of EGFR, and stimulation of these cells with human epidermal growth factor (EGF) results in receptor tyrosine autophosphorylation.

Row | Structure (SMILES) | IC50 [µM]
42 | C#Cc1ccc(F)c(Nc2ncnc3cc(OC)c(OC)cc23)c1 [Compound 42] | 0.29
43 | C#Cc1cccc(Nc2c(C#N)cnc3ccc(I)cc23)c1 [Compound 28, 4-((3-ethynylphenyl)amino)-6-iodoquinoline-3-carbonitrile] | 2.5
44 | C#Cc1cccc(Nc2ncnc3cc(F)c(F)cc23)c1 [Compound 6, N-(3-ethynylphenyl)-6,7-difluoroquinazolin-4-amine] | 12

Each molecule was assayed on U-CH2 chordoma cell line (assay: Cell viability assay (alamarBlue, 72 h), U-CH2). Settings: Homo sapiens, UCH2, n = 4, 72 h.
Assay type: cell-based, human
Procedure: as §1, §2

Row | Structure (SMILES) | IC50 [µM]
45 | C#Cc1cccc(Nc2c(C#N)cnc3ccc(I)cc23)c1 [Compound 28, 4-((3-ethynylphenyl)amino)-6-iodoquinoline-3-carbonitrile] | 14

Same assay, conditions: n = 4, 72 h

Row | Structure (SMILES) | IC50 [µM]
46 | C#Cc1ccc(F)c(Nc2ncnc3cc(OC)c(OC)cc23)c1 [Compound 42] | 20
47 | C#Cc1cccc(Nc2c(C#N)cnc3ccc(Br)cc23)c1 [Compound 27] | 30
48 | C#Cc1cccc(Nc2ncnc3ccc(C#N)cc23)c1 [Compound 18] | > 100
49 | C#Cc1cccc(Nc2ncnc3ccc(OC)cc23)c1 [Compound 2] | 47
50 | C#Cc1cccc(Nc2c(C#N)cnc3ccc(OC)cc23)c1 [Compound 23] | > 100
51 | C#Cc1cccc(Nc2ncnc3ccc(C(F)(F)F)cc23)c1 [Compound 10] | 42
52 | C#Cc1cccc(Nc2ncnc3cc(F)ccc23)c1 [Compound 12] | > 100
